Experiment [1] addresses T1, SCLam (soil metagenome, UniProt Z9RH19THY1, E147S).
T1 construct: monomer in asymmetric unit
T1 sequence (Z9RH19THY1 4-269 E147S): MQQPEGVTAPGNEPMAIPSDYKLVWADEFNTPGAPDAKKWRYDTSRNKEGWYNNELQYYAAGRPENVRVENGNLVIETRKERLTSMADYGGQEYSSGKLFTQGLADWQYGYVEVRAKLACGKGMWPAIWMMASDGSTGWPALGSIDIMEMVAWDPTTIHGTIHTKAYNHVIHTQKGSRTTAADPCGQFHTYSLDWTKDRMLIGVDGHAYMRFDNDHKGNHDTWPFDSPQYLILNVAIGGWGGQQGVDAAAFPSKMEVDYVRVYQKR
The experiment in a line: isothermal titration calorimetry. The following applies: 20 mM sodium phosphate pH 6.5, 20 °C. The experiment is classed as binding. From the text: isothermal titration calorimetry on SCLam
For orientation: ITC needs no label: the signal is the heat of the interaction.

Experiment [2] deals with T2, TpLam (Thermotoga petrophila, UniProt A5IL44).
T2 construct: gene Tpet_0899; purified preparation
T2 sequence (A5IL44 18-641): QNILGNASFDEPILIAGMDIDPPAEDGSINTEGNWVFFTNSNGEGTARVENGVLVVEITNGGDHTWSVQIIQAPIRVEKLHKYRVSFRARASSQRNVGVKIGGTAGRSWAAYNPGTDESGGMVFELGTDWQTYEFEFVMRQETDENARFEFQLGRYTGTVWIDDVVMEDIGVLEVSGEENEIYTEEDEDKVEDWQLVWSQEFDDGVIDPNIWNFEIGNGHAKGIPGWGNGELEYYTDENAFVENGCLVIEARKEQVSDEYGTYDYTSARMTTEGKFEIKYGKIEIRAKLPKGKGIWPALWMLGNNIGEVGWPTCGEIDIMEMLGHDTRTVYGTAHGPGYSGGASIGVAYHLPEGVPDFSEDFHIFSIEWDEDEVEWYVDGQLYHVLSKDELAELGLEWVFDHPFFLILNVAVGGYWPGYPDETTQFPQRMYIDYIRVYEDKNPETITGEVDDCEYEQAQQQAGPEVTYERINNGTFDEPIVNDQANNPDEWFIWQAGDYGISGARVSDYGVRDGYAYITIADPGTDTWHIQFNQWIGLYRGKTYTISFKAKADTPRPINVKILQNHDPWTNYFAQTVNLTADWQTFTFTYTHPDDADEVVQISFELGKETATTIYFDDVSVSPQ
The experiment in a line: capillary zone electrophoresis of hydrolysis products. The class given is biochemical. The following applies: 5 mM substrate, 10 μM enzyme, 70 °C, overnight.

The mark [3] stands for this setting: sequential binding model, site 1 (negative subsites).

In the case of `OC[C@H]1O[C@@H](O[C@H]2[C@H](O)[C@@H](O)[C@H](O[C@H]3[C@H](O)[C@@H](O)[C@H](O[C@H]4[C@H](O)[C@@H](CO)OC(O)[C@@H]4O)O[C@@H]3CO)O[C@@H]2CO)[C@H](O)[C@@H](O)[C@@H]1O` (stereo partly drawn) [BGB, 1,3-β-D-cellotriosyl-glucose], the “Ka × 10^4 (M^-1)” value in experiment [1] (single-site model) is given as 66.7 (±1.4) × 10^4.

For `OC[C@H]1O[C@@H](O[C@H]2[C@H](O)[C@@H](O)[C@H](O[C@@H]3[C@@H](O)[C@H](O[C@H]4[C@H](O)[C@@H](O)C(O)O[C@@H]4CO)O[C@H](CO)[C@H]3O)O[C@@H]2CO)[C@H](O)[C@@H](O)[C@@H]1O` (stereo partly drawn) [BGC, 1,3-β-D-cellobiosyl-cellobiose], in experiment [1] (single-site model), the “Ka × 10^4 (M^-1)” value is given as 0.59 (±0.07) × 10^4.

For `OC[C@H]1O[C@@H](O[C@H]2[C@H](O)[C@@H](O)[C@H](O[C@H]3[C@H](O)[C@@H](O)[C@H](O[C@H]4[C@H](O)[C@@H](O)[C@H](O[C@H]5[C@H](O)[C@@H](O)C(O)O[C@@H]5CO)O[C@@H]4CO)O[C@@H]3CO)O[C@@H]2CO)[C@H](O)[C@@H](O)[C@@H]1O` (some centres unmarked) [C5, cellopentaose], in experiment [2], the “capillary zone electrophoresis of hydrolysis products” value is “we also evaluated the activity of the TpLam from Thermotoga petrophila”.

Take `OC[C@H]1O[C@@H](O[C@H]2[C@H](O)[C@@H](O)[C@H](O[C@H]3[C@H](O)[C@@H](O)[C@H](O[C@H]4[C@H](O)[C@@H](O)[C@H](O[C@H]5[C@H](O)[C@@H](O)[C@H](O[C@H]6[C@H](O)[C@@H](O)C(O)O[C@@H]6CO)O[C@@H]5CO)O[C@@H]4CO)O[C@@H]3CO)O[C@@H]2CO)[C@H](O)[C@@H](O)[C@@H]1O` (some centres unmarked) [C6, cellohexaose]: in experiment [1] (setting [3]), the “Ka × 10^4 (M^-1)” value was 9.7 (±0.56) × 10^4.

For the compound `OC[C@H]1O[C@@H](O[C@@H]2[C@@H](O)[C@H](O[C@@H]3[C@@H](O)[C@H](O[C@@H]4[C@@H](O)[C@H](O[C@@H]5[C@@H](O)[C@H](O[C@H]6[C@H](O)[C@@H](CO)OC(O)[C@@H]6O)O[C@H](CO)[C@H]5O)O[C@H](CO)[C@H]4O)O[C@H](CO)[C@H]3O)O[C@H](CO)[C@H]2O)[C@H](O)[C@@H](O)[C@@H]1O` (some centres unmarked) [L6, laminarihexaose], the “Ka × 10^4 (M^-1)” value in experiment [1] (setting [3]) was 17.8 (±2.2) × 10^4.

Values taken from article PMC7961093, “Insights into the dual cleavage activity of the GH16 laminarinase enzyme class on β-1,3 and β-1,4 glycosidic bonds” (The Journal of Biological Chemistry, 2021).
